Where two headings read alike, the source gives them in different places.
Tests used:
Y160W PNP mutant [1] = target: T1, Y160W PNP mutant (Escherichia coli, UniProt P0ABP8, Y161W); assay: Near-UV CD titrations; type: binding, E. coli; design: made in house; host or cells: E. coli DH5α-T1; conditions: for Kd: CD titrations with phosphate, three-binding-site model, 25 °C
Experimental: (§1) Experiments were performed with Chirascan spectrophotometer (Applied Photophysics), in the near UV region (240–290 nm), thus in the region where aromatic amino acids absorb. Full spectra of the protein/complex were recorded, with 0.2 nm resolution and 2 s averaging per point. Enzyme concentration was in the range of 20–120 μM, the 50 mM Tris/HCl buffer pH 7.6 was used, ligands were dissolved in the same buffer. All measurements were performed at 25 °C. Upon addition of each volume of phosphate solution spectrum was recorded in the range 230–300 nm, in the amino acids absorption region, with 0.25 nm step and 2 s per point signal averaging. Spectra were smoothed with Savitzky-Golay algorithm[44] using a fourth degree polynomial and eleven points in the averaging window. The wavelengths of the greatest signal change were determined by calculating differential spectra. These wavelengths were used to plot the titration curves. Global analysis of five to seven curves was performed with DynaFit4[40].
(§2) Three models were taken into account in analysis of binding curves: model with one (first equation below), two (first two equations) and three binding sites. P+L⇔PLwithKd1PL+L⇔PLLwithKd2PLL+L⇔PLLLwithKd3
(§3) The model with one binding site is based on the assumption that all monomers are equivalent, and there is no cooperation between them. In the model with two binding sites the basic functional unit of the protein is a dimer, possible non-equivalence of binding sites or cooperativity between active sites in the dimer are taken into account (in the case of no cooperativity dissociation constants should be related statistically: Kd2 = 4Kd1), the dimers within hexamer are equivalent. The model with three binding sites is based on the crystallographic structures of binary and ternary complexes of PNP with ligands, where two of the dimers are in the “open-closed” conformation, but the third dimer is symmetrical, in the “open-open” conformation. Thus, active sites in the open conformation belonging to “open-closed” and “open-open” dimer may not be equivalent. […]
(§4) Titration series were analysed globally, always starting from the simplest, one-binding-site model. […] For all tested models the Akaike information criterion[23] was also calculated. […] Analysed models were fitted to the raw data, whereas graphs presented in this study were prepared from the normalised data and the fitted curves. […] Responses are defined as changes in a measured physical quantity related to the formation of subsequent protein–ligand complexes: intrinsic protein fluorescence intensity, fluorescence intensity of the dye, heat and ellipticity for fluorimetric, thermophoretic, calorimetric and CD titrations, respectively. […]

WT E. coli PNP = target: T2, WT E. coli PNP (Escherichia coli, UniProt P0ABP8); assay: Near-UV CD titrations; type: binding; conditions: for Kd: CD titrations with phosphate, three-binding-site model, 25 °C
T2 construct: made in house
T2 sequence (P0ABP8 2-239 limits assumed): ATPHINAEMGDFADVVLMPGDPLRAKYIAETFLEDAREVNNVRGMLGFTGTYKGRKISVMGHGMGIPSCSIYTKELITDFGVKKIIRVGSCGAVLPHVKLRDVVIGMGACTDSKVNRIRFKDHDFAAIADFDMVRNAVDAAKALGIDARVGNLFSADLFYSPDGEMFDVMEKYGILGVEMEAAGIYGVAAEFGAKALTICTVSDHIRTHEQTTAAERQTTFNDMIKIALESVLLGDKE
Experimental: as §1, §2, §3, §4

Y160W PNP mutant [2] = target: T1, Y160W PNP mutant; conditions: phosphate as variable substrate, 0.4 mM m^7Guo, allostery Eq. (2)
Experimental: Activity measurements were performed for each protein sample, before and after each experiment as a control of the state of the protein.
The classical Michaelis–Menten equation was fitted to the kinetic curves (i.e. initial rate of the reaction, v0, vs. initial substrate concentration, c0):1 v0c0=Vmax1c0/c0+KM1
Coefficients a and b express the degree of cooperation between the subunits in a dimer, while constants KM1 and Vmax1 characterize the active sites of the enzyme when the neighbouring site is free.
A more complex model was used if there was a statistically significant decrease in the residual sum of squares as judged by the F test at 95% confidence level.

[3] = 50 mM Tris/HCl pH 7.6, read-out: Kd1 ± SD
[4] = 50 mM Tris/HCl pH 7.6, read-out: Kd2 ± SD
[5] = 50 mM Tris/HCl pH 7.6, read-out: Kd3 ± SD

T1 sequence (P0ABP8 2-239 Y161W): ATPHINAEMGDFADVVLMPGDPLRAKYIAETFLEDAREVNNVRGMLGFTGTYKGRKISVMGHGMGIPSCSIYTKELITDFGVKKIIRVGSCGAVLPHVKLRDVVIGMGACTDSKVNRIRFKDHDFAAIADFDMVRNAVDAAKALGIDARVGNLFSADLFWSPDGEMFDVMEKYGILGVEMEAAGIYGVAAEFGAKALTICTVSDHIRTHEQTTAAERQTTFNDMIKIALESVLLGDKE

Question: For `Nc1ncnc2c([C@@H]3O[C@H](CO)[C@@H](O)[C@H]3O)[nH]nc12` [FA, Formycin A], which “Change in CD signal upon binding” value (Y160W PNP mutant [1]; formycin A binding) is on record?
Answer: Its value is “no changes in the CD signal”.

Question: What about the “Change in CD signal upon binding” value (WT E. coli PNP; formycin A binding) of the same molecule?
Answer: The value was “no changes in the CD signal”.

Question: `O=P(O)(O)O` [Pi, Orthophosphate] was tested. Which “a (cooperativity coefficient, KM2 = aKM1)” value (Y160W PNP mutant [2]) did it give?
Answer: The value was 390 ± 122.

Question: What about the “b (cooperativity coefficient, Vmax2 = bVmax1)” value (Y160W PNP mutant [2]) of the same molecule?
Answer: The value was 0.94 ± 0.05.

Question: What about the Km (Y160W PNP mutant [2]; pH 7.0, 25 °C) of the same molecule?
Answer: Its Km is 18.7 ± 2.7 µM.

Question: And the Vmax (Y160W PNP mutant [2]; pH 7.0, 25 °C)?
Answer: Its Vmax is 11.7 ± 0.4 U/mg.

Question: And the Kd (Y160W PNP mutant [1]; [3])?
Answer: Its Kd is 4.13 µM.

Question: And the Kd (Y160W PNP mutant [1]; [4])?
Answer: The Kd was 128 µM.

Question: And the Kd (Y160W PNP mutant [1]; [5])?
Answer: Its Kd is 2330 µM.

Question: What about the Kd (WT E. coli PNP; [3]) of the same molecule?
Answer: The Kd was 0.58 µM.

Question: And the Kd (WT E. coli PNP; [4])?
Answer: Its Kd is 107 µM.

Question: And the Kd (WT E. coli PNP; [5])?
Answer: The Kd was 1030 µM.

Source: article PMC8160210, “Single tryptophan Y160W mutant of homooligomeric E. coli purine nucleoside phosphorylase implies that dimers forming the hexamer are functionally not equivalent” (Scientific Reports, 2021)
